# Data reported in patent US20250161321A1, “AMINO ACID BASED CARBAMATES AND/OR UREAS FOR THE TREATMENT OF SORTILIN DEPENDENT DISEASES” (Vesper Bio ApS, priority 2022, published 2025).
# Biological target: h-Sortilin (Homo sapiens (Human), UniProt Q99523)
# Experiment: Neurotensin scintillation proximity assay (SORTILIN Binding Assay [3H]NT SPA)
# Conditions: displacement of 5 nM [3H]-neurotensin from 150 nM 6his-Sortilin; average of at least 2 determinations
# Procedure: The exemplified compounds of the invention were tested in a Neurotensin (NTS) scintillation proximity assay (SPA). NTS, which is a 13 amino acid neuropeptide, is a sortilin ligand. The IC50 is a measure of the amount of the compound required to inhibit the binding of NTS to sortilin by 50%. The skilled person will recognise that the lower the IC50 value, the less of the compound needed to achieve the desired effect, and as a result, the chances of undesirable off-target effects are reduced.
# Compound affinity was determined by measuring the displacement of [^3H]-neurotensin binding to h-Sortilin in SPA format. Total volume of 40 μl in 50 mM HEPES pH 7.4 assay buffer containing 100 mM NaCl, 2.0 mM CaCl2, 0.1% BSA and 0.1% Tween-20. Compound pre-incubation for 30 minutes at room temperature with 150 nM of 6his-Sortilin before 5 nM [3H]-Neurotensin and Ni chelate imaging beads (Perkin Elmer) were added, after 6 hours the plate was read on a ViewLux with 360 s exposure time. Dose-response evaluation of compounds was performed with 8 concentrations of drugs (covering 3 decades). IC50 values were calculated by nonlinear regression using the sigmoid concentration-response (variable slope) using CDD Vault software. All values reported are average of at least 2 determinations.
# h-Sortilin, sequence (Q99523 78-831): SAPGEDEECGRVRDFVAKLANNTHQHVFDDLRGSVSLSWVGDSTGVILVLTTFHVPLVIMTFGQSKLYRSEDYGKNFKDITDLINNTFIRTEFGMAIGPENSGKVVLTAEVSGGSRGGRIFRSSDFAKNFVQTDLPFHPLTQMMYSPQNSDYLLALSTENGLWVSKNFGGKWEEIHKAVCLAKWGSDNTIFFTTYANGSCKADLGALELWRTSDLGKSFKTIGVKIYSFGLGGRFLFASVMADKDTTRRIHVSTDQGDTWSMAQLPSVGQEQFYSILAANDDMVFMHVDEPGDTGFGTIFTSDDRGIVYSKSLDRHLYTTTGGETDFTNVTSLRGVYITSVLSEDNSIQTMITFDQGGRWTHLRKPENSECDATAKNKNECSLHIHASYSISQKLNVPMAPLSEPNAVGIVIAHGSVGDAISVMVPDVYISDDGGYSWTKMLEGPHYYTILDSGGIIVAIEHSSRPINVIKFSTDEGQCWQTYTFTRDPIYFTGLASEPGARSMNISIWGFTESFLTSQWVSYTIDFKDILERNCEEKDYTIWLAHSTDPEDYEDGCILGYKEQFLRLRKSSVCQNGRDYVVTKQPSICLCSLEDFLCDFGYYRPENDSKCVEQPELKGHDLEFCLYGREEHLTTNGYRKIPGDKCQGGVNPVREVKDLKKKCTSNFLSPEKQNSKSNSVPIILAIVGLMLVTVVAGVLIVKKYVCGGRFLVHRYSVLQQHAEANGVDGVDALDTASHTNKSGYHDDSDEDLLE
row,SMILES,IC50
1,"CC(C)(C)CC[C@H](NC(=O)NCc1ccccc1)C(=O)O [Example 1, (2S)-2-[(benzylcarbamoyl)amino]-5,5-dimethylhexanoic acid]",380 nM
2,"CN(Cc1ccccc1)C(=O)N[C@@H](CCC(C)(C)C)C(=O)O [Example 2, (2S)-2-{[benzyl(methyl)carbamoyl]amino}-5,5-dimethylhexanoic acid]",430 nM
3,"CC(C)(C)CC[C@H](NC(=O)OCc1ccccc1)C(=O)O [Example 3, (2S)-2-{[(benzyloxy)carbonyl]amino}-5,5-dimethylhexanoic acid]",560 nM
4,"CC(C)(C)CC[C@H](NC(=O)N1CCOCC1)C(=O)O [Example 4, (2S)-5,5-dimethyl-2-[(morpholine-4-carbonyl)amino]hexanoic acid]",260 nM
5,"CC(C)(C)CC[C@H](NC(=O)N1CCCOCC1)C(=O)O [Example 5, (2S)-5,5-dimethyl-2-[(1,4-oxazepane-4-carbonyl)amino]hexanoic acid]",370 nM
